Tested on: upstream regulators in kidney tissue of g-ddY mice
Experiment: IPA upstream regulator analysis, g-ddY mouse kidney RNA-seq
Assay type: in vivo
Details: 30 mg/kg/day

With CCCCN(CCCC)C(=O)CN1C[C@H](c2ccc3c(c2)OCO3)[C@@H](C(=O)O)[C@@H]1c1ccc(OC)cc1 [Atrasentan, (2R,3R,4S)-4-(1,3-benzodioxol-5-yl)-1-[2-(dibutylamino)-2-oxoethyl]-2-(4-methoxyphenyl)pyrrolidine-3-carboxylic acid] as the compound, how does the “26s Proteasome Activation z-score” value read?
The value was −2.122.

What about the “26s Proteasome Predicted Activation State” value of the same compound?
The value was “Inhibited”.

And the “ADGRF5 Activation z-score” value?
Its value is 2.

What about the “ADGRF5 Predicted Activation State” value of the same compound?
Its value is “Activated”.

What about the “AGT Activation z-score” value of the same compound?
The value was −4.741.

What about the “AGT Predicted Activation State” value of the same compound?
Its value is “Inhibited”.

What about the “BMP2 Activation z-score” value of the same compound?
The value was −2.435.

And the “BMP2 Predicted Activation State” value?
The value was “Inhibited”.

And the “CCL5 Activation z-score” value?
Its value is −2.268.

And the “CCL5 Predicted Activation State” value?
The value was “Inhibited”.

What about the “CCN5 Activation z-score” value of the same compound?
Its value is 2.45.

And the “CCN5 Predicted Activation State” value?
Its value is “Activated”.

What about the “CCR2 Activation z-score” value of the same compound?
The value was −3.791.

And the “CCR2 Predicted Activation State” value?
Its value is “Inhibited”.

What about the “CD40LG Activation z-score” value of the same compound?
Its value is −3.607.

What about the “CD40LG Predicted Activation State” value of the same compound?
The value was “Inhibited”.

And the “CG Activation z-score” value?
Its value is −4.34.

What about the “CG Predicted Activation State” value of the same compound?
Its value is “Inhibited”.

What about the “CHRM3 Activation z-score” value of the same compound?
The value was −2.425.

What about the “CHRM3 Predicted Activation State” value of the same compound?
Its value is “Inhibited”.

And the “CSF2 Activation z-score” value?
The value was −5.645.

And the “CSF2 Predicted Activation State” value?
Its value is “Inhibited”.

And the “CSF3 Activation z-score” value?
Its value is −3.116.

What about the “CSF3 Predicted Activation State” value of the same compound?
The value was “Inhibited”.

What about the “CXCL12 Activation z-score” value of the same compound?
The value was −2.851.

And the “CXCL12 Predicted Activation State” value?
The value was “Inhibited”.

What about the “DKK1 Activation z-score” value of the same compound?
Its value is 2.113.

What about the “DKK1 Predicted Activation State” value of the same compound?
The value was “Activated”.

And the “EDN1 Activation z-score” value?
The value was −4.26.

And the “EDN1 Predicted Activation State” value?
Its value is “Inhibited”.

What about the “EDNRA Activation z-score” value of the same compound?
Its value is −2.449.

What about the “EDNRA Predicted Activation State” value of the same compound?
The value was “Inhibited”.

And the “EGF Activation z-score” value?
Its value is −3.649.

And the “EGF Predicted Activation State” value?
Its value is “Inhibited”.

What about the “F2R Activation z-score” value of the same compound?
Its value is −3.04.

What about the “F2R Predicted Activation State” value of the same compound?
The value was “Inhibited”.

What about the “F3 Activation z-score” value of the same compound?
Its value is −3.862.

And the “F3 Predicted Activation State” value?
The value was “Inhibited”.

What about the “FAS Activation z-score” value of the same compound?
Its value is 2.887.

And the “FAS Predicted Activation State” value?
The value was “Activated”.

What about the “FCGR1A Activation z-score” value of the same compound?
Its value is −2.201.

What about the “FCGR1A Predicted Activation State” value of the same compound?
The value was “Inhibited”.

What about the “FGF2 Activation z-score” value of the same compound?
The value was −4.33.

What about the “FGF2 Predicted Activation State” value of the same compound?
Its value is “Inhibited”.

What about the “FGF23 Activation z-score” value of the same compound?
The value was −2.497.

What about the “FGF23 Predicted Activation State” value of the same compound?
Its value is “Inhibited”.

And the “GDF2 Activation z-score” value?
Its value is −2.055.

What about the “GDF2 Predicted Activation State” value of the same compound?
The value was “Inhibited”.

And the “GPER1 Activation z-score” value?
Its value is −3.527.

And the “GPER1 Predicted Activation State” value?
Its value is “Inhibited”.

What about the “HGF Activation z-score” value of the same compound?
Its value is −5.138.

What about the “HGF Predicted Activation State” value of the same compound?
The value was “Inhibited”.

And the “HTR7 Activation z-score” value?
The value was −2.219.

And the “HTR7 Predicted Activation State” value?
The value was “Inhibited”.

What about the “IFNA2 Activation z-score” value of the same compound?
The value was −3.465.

What about the “IFNA2 Predicted Activation State” value of the same compound?
Its value is “Inhibited”.

And the “IFNAR1 Activation z-score” value?
Its value is −3.094.

What about the “IFNAR1 Predicted Activation State” value of the same compound?
The value was “Inhibited”.

And the “IFNG Activation z-score” value?
Its value is −4.604.

And the “IFNG Predicted Activation State” value?
The value was “Inhibited”.

And the “IGF1 Activation z-score” value?
The value was −2.676.

What about the “IGF1 Predicted Activation State” value of the same compound?
Its value is “Inhibited”.

And the “IGF1R Activation z-score” value?
Its value is 2.165.

What about the “IGF1R Predicted Activation State” value of the same compound?
Its value is “Activated”.

What about the “IL1A Activation z-score” value of the same compound?
Its value is −4.942.

And the “IL1A Predicted Activation State” value?
The value was “Inhibited”.

And the “IL1B Activation z-score” value?
The value was −7.154.

What about the “IL1B Predicted Activation State” value of the same compound?
The value was “Inhibited”.

And the “IL2 Activation z-score” value?
The value was −4.023.

What about the “IL2 Predicted Activation State” value of the same compound?
The value was “Inhibited”.

What about the “IL3 Activation z-score” value of the same compound?
The value was −3.894.

What about the “IL3 Predicted Activation State” value of the same compound?
Its value is “Inhibited”.

What about the “IL6 Activation z-score” value of the same compound?
The value was −3.872.

And the “IL6 Predicted Activation State” value?
Its value is “Inhibited”.

And the “IL6R Activation z-score” value?
Its value is −2.179.

What about the “IL6R Predicted Activation State” value of the same compound?
The value was “Inhibited”.

And the “IL10 Activation z-score” value?
Its value is −2.775.

What about the “IL10 Predicted Activation State” value of the same compound?
Its value is “Inhibited”.

And the “IL21 Activation z-score” value?
The value was −2.886.

What about the “IL21 Predicted Activation State” value of the same compound?
The value was “Inhibited”.

And the “IL33 Activation z-score” value?
The value was −3.781.

What about the “IL33 Predicted Activation State” value of the same compound?
The value was “Inhibited”.

And the “Ifn gamma Activation z-score” value?
Its value is −3.354.

And the “Ifn gamma Predicted Activation State” value?
Its value is “Inhibited”.

What about the “Ige Activation z-score” value of the same compound?
Its value is −4.883.

What about the “Ige Predicted Activation State” value of the same compound?
Its value is “Inhibited”.

What about the “LDL Activation z-score” value of the same compound?
Its value is −3.568.

And the “LDL Predicted Activation State” value?
Its value is “Inhibited”.

And the “LGR5 Activation z-score” value?
Its value is 2.137.

What about the “LGR5 Predicted Activation State” value of the same compound?
The value was “Activated”.

And the “Laminin (complex) Activation z-score” value?
Its value is 2.043.

What about the “Laminin (complex) Predicted Activation State” value of the same compound?
The value was “Activated”.

And the “NFkB (complex) Activation z-score” value?
Its value is −5.503.

What about the “NFkB (complex) Predicted Activation State” value of the same compound?
The value was “Inhibited”.

What about the “NRG1 Activation z-score” value of the same compound?
Its value is −3.478.

What about the “NRG1 Predicted Activation State” value of the same compound?
Its value is “Inhibited”.

And the “OSM Activation z-score” value?
Its value is −5.912.

And the “OSM Predicted Activation State” value?
The value was “Inhibited”.

And the “PDGF BB Activation z-score” value?
The value was −3.976.

What about the “PDGF BB Predicted Activation State” value of the same compound?
Its value is “Inhibited”.

What about the “PDGFB Activation z-score” value of the same compound?
Its value is −2.622.

And the “PDGFB Predicted Activation State” value?
The value was “Inhibited”.

What about the “PF4 Activation z-score” value of the same compound?
The value was −2.219.

What about the “PF4 Predicted Activation State” value of the same compound?
Its value is “Inhibited”.

And the “PI3K (complex) Activation z-score” value?
Its value is −3.293.

What about the “PI3K (complex) Predicted Activation State” value of the same compound?
Its value is “Inhibited”.

What about the “PLA2R1 Activation z-score” value of the same compound?
Its value is 2.917.

And the “PLA2R1 Predicted Activation State” value?
Its value is “Activated”.

And the “PRL Activation z-score” value?
The value was −3.529.

And the “PRL Predicted Activation State” value?
Its value is “Inhibited”.

What about the “PROKR1 Activation z-score” value of the same compound?
The value was 2.

What about the “PROKR1 Predicted Activation State” value of the same compound?
The value was “Activated”.

What about the “PTGER4 Activation z-score” value of the same compound?
Its value is 2.017.

What about the “PTGER4 Predicted Activation State” value of the same compound?
The value was “Activated”.

What about the “Pdgf (complex) Activation z-score” value of the same compound?
Its value is −2.779.

And the “Pdgf (complex) Predicted Activation State” value?
The value was “Inhibited”.

And the “SMO Activation z-score” value?
The value was 2.621.

What about the “SMO Predicted Activation State” value of the same compound?
The value was “Activated”.

And the “TCR Activation z-score” value?
The value was −2.362.

What about the “TCR Predicted Activation State” value of the same compound?
The value was “Inhibited”.

What about the “TGFB1 Activation z-score” value of the same compound?
Its value is −5.163.

And the “TGFB1 Predicted Activation State” value?
The value was “Inhibited”.

And the “TGFB2 Activation z-score” value?
The value was −2.631.

And the “TGFB2 Predicted Activation State” value?
The value was “Inhibited”.

What about the “TGFB3 Activation z-score” value of the same compound?
Its value is −2.663.

What about the “TGFB3 Predicted Activation State” value of the same compound?
The value was “Inhibited”.

What about the “TLR3 Activation z-score” value of the same compound?
The value was −5.02.

And the “TLR3 Predicted Activation State” value?
Its value is “Inhibited”.

What about the “TLR4 Activation z-score” value of the same compound?
The value was −4.561.

What about the “TLR4 Predicted Activation State” value of the same compound?
Its value is “Inhibited”.

And the “TLR9 Activation z-score” value?
Its value is −4.894.

What about the “TLR9 Predicted Activation State” value of the same compound?
The value was “Inhibited”.

What about the “TNF Activation z-score” value of the same compound?
The value was −6.593.

And the “TNF Predicted Activation State” value?
Its value is “Inhibited”.

And the “TNFRSF1A Activation z-score” value?
The value was −2.449.

What about the “TNFRSF1A Predicted Activation State” value of the same compound?
Its value is “Inhibited”.

And the “TNFSF11 Activation z-score” value?
Its value is −2.519.

And the “TNFSF11 Predicted Activation State” value?
The value was “Inhibited”.

And the “TNFSF12 Activation z-score” value?
Its value is −3.271.

And the “TNFSF12 Predicted Activation State” value?
Its value is “Inhibited”.

And the “TREM1 Activation z-score” value?
Its value is −3.62.

And the “TREM1 Predicted Activation State” value?
The value was “Inhibited”.

What about the “TSLP Activation z-score” value of the same compound?
Its value is −2.533.

And the “TSLP Predicted Activation State” value?
Its value is “Inhibited”.

And the “TYROBP Activation z-score” value?
Its value is −2.376.

And the “TYROBP Predicted Activation State” value?
The value was “Inhibited”.

And the “VEGFA Activation z-score” value?
Its value is −2.501.

And the “VEGFA Predicted Activation State” value?
Its value is “Inhibited”.

What about the “VEGFB Activation z-score” value of the same compound?
Its value is 3.128.

And the “VEGFB Predicted Activation State” value?
Its value is “Activated”.

What about the “WNT3A Activation z-score” value of the same compound?
The value was −3.711.

And the “WNT3A Predicted Activation State” value?
The value was “Inhibited”.

— patent US20210353593A1 (Chinook Therapeutics, Inc., priority 2019, published 2021)
